Data as given in US5567692A, “9-[(substituted glycyl) amido)]-6-demethyl-6-deoxytetracyclines” (priority 1995, dated 1996).
Structures can show the parent of a compound that is named as a salt. Where two headings read alike, the source gives them in different places.

How the values were obtained:
S. aureus UBMS 90-3 = test: MIC, agar dilution; type: cell-based; conditions: Staphylococcus aureus, UBMS903, 18 h
E. coli PRP1 Tet A = test: microbe, parasite or virus in culture; type: cell-based
S. aureus SMITH (MP) = test: MIC, agar dilution; type: cell-based; conditions: Staphylococcus aureus, 18 h
E. faecalis ATCC 29212 = test: MIC, agar dilution; type: cell-based; conditions: Enterococcus faecalis, ATCC29212, 18 h
E. coli J3272 Tet C = test: microbe, parasite or virus in culture; type: cell-based
Enterococcus 12201 = test: MIC, agar dilution; type: cell-based; conditions: Enterococcus, 12201, 18 h
[1] = test system: S. aureus UBMS 88-5 Tet M; test: microbe, parasite or virus in culture; type: cell-based; conditions: Staphylococcus aureus, UBMS885TETM, 18 h
[2] = test system: S. aureus UBMS 90-1 Tet M; test: microbe, parasite or virus in culture; type: cell-based; conditions: Staphylococcus aureus, UBMS901TETM, 18 h
S. aureus IVES 2943 = test: MIC, agar dilution; type: cell-based; conditions: Staphylococcus aureus, IVES2943, 18 h
S. aureus UBMS 88-4 = test: MIC, agar dilution; type: cell-based; conditions: Staphylococcus aureus, UBMS884, 18 h
S. aureus NEMC 8769 = test: MIC, agar dilution; type: cell-based; conditions: Staphylococcus aureus, NEMC8769, 18 h
S. aureus ATCC 29213 = test: MIC, agar dilution; type: cell-based; conditions: Staphylococcus aureus, ATCC29213, 18 h, S. aureus ATCC 29213
S. marcescens FPOR 8733 = test: MIC, agar dilution; type: cell-based; conditions: Serratia marcescens, FPOR8733, 18 h
E. coli UBMS 90-4 Tet M = test: microbe, parasite or virus in culture; type: cell-based; conditions: Escherichia coli, UBMS904TETM, 18 h
[3] = test system: E. coli UBMS 89-2 Tet sens.; test: MIC, agar dilution; type: cell-based; conditions: Escherichia coli, 18 h
[4] = test system: Ps. aeruginosa ATCC 27853; test: MIC, agar dilution; type: cell-based
[5] = test system: X. maltophilia NEMC 87210; test: MIC, agar dilution; type: cell-based; conditions: Stenotrophomonas maltophilia, NEMC87210, 18 h
S. aureus ROSE (MP) = test: MIC, agar dilution; type: cell-based; conditions: Staphylococcus aureus, 18 h
E. coli UBMS 90-5 = test: microbe, parasite or virus in culture; type: cell-based; conditions: E. coli UBMS 90-5
[6] = test system: Staphylococcus aureus strain Smith (tetracycline sensitive); test: Acute lethal infection in mice, S. aureus Smith; type: in vivo; conditions: for ED50: Staphylococcus aureus, 168 h, mice, S. aureus Smith (Sens), 7 day survival, read-out: ED50; for in vivo activity (in words): tested intravenously against the minocycline sensitive organism S. aureus Smith
E. coli UBMS 88-1 Tet B = test: microbe, parasite or virus in culture; type: cell-based; conditions: Escherichia coli, UBMS881TETB, 18 h
[7] = test system: E. coli MC 4100 Tet sens.; test: MIC, agar dilution; type: cell-based; conditions: Escherichia coli, 18 h
[8] = test system: E. coli MC 4100 TNIOC Tet B; test: microbe, parasite or virus in culture; type: cell-based; conditions: Escherichia coli, 18 h
[9] = test system: S. aureus UBMS 90-2 Tet M; test: microbe, parasite or virus in culture; type: cell-based; conditions: Staphylococcus aureus, UBMS902TETM, 18 h
E. coli J2175 = test: MIC, agar dilution; type: cell-based; conditions: Escherichia coli, 18 h, read-out: MIC
E. coli #311 (MP) = test: MIC, agar dilution; type: cell-based
[10] = test system: S. aureus UBMS 88-7 Tet K; test: microbe, parasite or virus in culture; type: cell-based; conditions: Staphylococcus aureus, UBMS887TETK, 18 h
E. coli BAJ9003 IMP MUT = test: microbe, parasite or virus in culture; type: cell-based; conditions: Escherichia coli, BAJ9003IMPMUT, 18 h
E. coli UBMS 89-1 Tet M = test: microbe, parasite or virus in culture; type: cell-based; conditions: Escherichia coli, UBMS891TETM, 18 h
[11] = test system: S. hemolyticus AVHAH 88-3; test: MIC, agar dilution; type: cell-based; conditions: Streptococcus pyogenes, AVHAH883, 18 h
S. aureus IVES 1983 = test: MIC, agar dilution; type: cell-based; conditions: Staphylococcus aureus, IVES1983, 18 h
E. coli ATCC 25922 = test: MIC, agar dilution; type: cell-based; conditions: Escherichia coli, ATCC25922, 18 h
E. coli J3272 Tet D = test: microbe, parasite or virus in culture; type: cell-based; conditions: Escherichia coli, J3272TETD, 18 h
E. coli J3272 Tet sens = test: MIC, agar dilution; type: cell-based; conditions: Escherichia coli, J3272TETSENS, 18 h
[12] = Escherichia coli, PRP1TETA, 18 h
[13] = E. faecalis ATCC 29212, read-out: MIC
[14] = Escherichia coli, J3272TETC, 18 h
[15] = Escherichia coli, UBMS905, 18 h, read-out: MIC
[16] = Pseudomonas aeruginosa, ATCC27853, 18 h

CCCCCCNCC(=O)Nc1ccc2c(c1O)C(=O)C1=C(O)[C@]3(O)C(=O)C(C(N)=O)=C(O)[C@@H](N(C)C)C3CC1C2 (stereo partly drawn) [G, [4S-(4alpha,12aalpha)]-4-(Dimethylamino)-9-[[(hexylamino)acetyl]amino]-1,4,4a,5,5a,6,11,12a-octahydro-3,10,12,12a-tetrahydroxy-1,11-dioxo-2-naphthacenecarboxamide dihydrochloride]
8 µg/mL: MIC (S. marcescens FPOR 8733; read-out: MIC)
very good in vivo activity: in vivo activity (in words) [6]
> 16 mg/kg: ED50 ([6]; po, Oral)
0.5 µg/mL: MIC [1] | MIC (S. aureus ATCC 29213) | MIC (E. coli UBMS 90-4 Tet M) | MIC (E. coli J3272 Tet D)
1 µg/mL: MIC (E. coli PRP1 Tet A; [12]) | MIC (E. coli J3272 Tet C; [14]) | MIC [2] | MIC [3] | MIC [5] | MIC (E. coli UBMS 90-5; [15]) | MIC (E. coli UBMS 88-1 Tet B) | MIC [8] | MIC (E. coli J2175) | MIC (E. coli #311 (MP); Escherichia coli, 18 h) | MIC [10] | MIC (S. aureus IVES 1983) | MIC (E. coli ATCC 25922)
> 4 mg/kg: ED50 ([6]; iv, Intraveneous)
4 µg/mL: MIC (S. aureus ROSE (MP); read-out: MIC)
0.25 µg/mL: MIC (S. aureus UBMS 90-3) | MIC (S. aureus SMITH (MP)) | MIC (Enterococcus 12201) | MIC (S. aureus UBMS 88-4) | MIC [9] | MIC (E. coli UBMS 89-1 Tet M)
32 µg/mL: MIC ([4]; Pseudomonas aeruginosa, ATCC27853, 18 h, Ps. aeruginosa ATCC 27853, read-out: MIC)
0.12 µg/mL: MIC (E. faecalis ATCC 29212; [13]) | MIC (S. aureus NEMC 8769; read-out: MIC) | MIC [7] | MIC (E. coli BAJ9003 IMP MUT)
2 µg/mL: MIC (S. aureus IVES 2943) | MIC [11]

CN(C)CC(=O)Nc1ccc2c(c1O)C(=O)C1=C(O)[C@]3(O)C(=O)C(C(N)=O)=C(O)[C@@H](N(C)C)C3CC1C2 (stereo partly drawn) [AA, [4S-(4alpha,12aalpha)]-4-(Dimethylamino)-9-[[(dimethylamino)acetyl]amino]-1,4,4a,5,5a,6,11,12a-octahydro-3,10,12,12a-tetrahydroxy-1,11-dioxo-2-naphthacenecarboxamide disulfate]
< 0.015 µg/mL: MIC (S. aureus ATCC 29213)
4 µg/mL: MIC (S. marcescens FPOR 8733; read-out: MIC) | MIC (S. aureus ROSE (MP))
very good in vivo activity: in vivo activity (in words) [6]
0.03 µg/mL: MIC (S. aureus NEMC 8769)
> 16 mg/kg: ED50 ([6]; po, Oral)
0.5 µg/mL: MIC ([11]; S. hemolyticus AVHAH 88-3, read-out: MIC)
0.50 µg/mL: MIC (E. coli #311 (MP); E. coli #311 (MP))
16 µg/mL: MIC ([4]; Ps. aeruginosa ATCC 27853)
0.5 to 1 mg/kg: ED50 ([6]; iv, Intraveneous)
2 µg/mL: MIC (E. coli PRP1 Tet A) | MIC ([5]; X. maltophilia NEMC 87210, read-out: MIC) | MIC (S. aureus IVES 1983)
0.25 µg/mL: MIC [2] | MIC (E. coli UBMS 90-4 Tet M) | MIC [3] | MIC (E. coli UBMS 90-5) | MIC (E. coli UBMS 88-1 Tet B) | MIC [8] | MIC (E. coli J3272 Tet sens) | MIC (E. coli J2175) | MIC (E. coli UBMS 89-1 Tet M) | MIC (E. coli ATCC 25922)
1 µg/mL: MIC (E. coli J3272 Tet C) | MIC (S. aureus IVES 2943; S. aureus IVES 2943, read-out: MIC) | MIC [10]
0.06 µg/mL: MIC (S. aureus UBMS 90-3; S. aureus UBMS 90-3)

CN(C)[C@@H]1C(O)=C(C(N)=O)C(=O)[C@@]2(O)C(O)=C3C(=O)c4c(ccc(NC(=O)CNCC5CC5)c4O)CC3CC12 (stereo partly drawn) [Q, [4S-(4alpha,12aalpha)]-9-[[[(Cyclopropylmethyl)amino]acetyl]amino]-4-(dimethylamino)-1,4,4a,5,5a,6,11,12a-octahydro-3,10,12,12a-tetrahydroxy-1,11-dioxo-2-naphthacenecarboxamide dihydrochloride]
16 µg/mL: MIC [4, 16] | MIC (S. aureus ROSE (MP))
8 µg/mL: MIC (S. aureus IVES 2943) | MIC (S. marcescens FPOR 8733; read-out: MIC) | MIC [10]
1 µg/mL: MIC [3] | MIC [8] | MIC (E. coli J2175) | MIC (E. coli #311 (MP); Escherichia coli, 18 h)
> 16 mg/kg: ED50 ([6]; po, Oral)
0.5 µg/mL: MIC (S. aureus UBMS 90-3) | MIC (S. aureus SMITH (MP)) | MIC (E. coli J3272 Tet C; [14]) | MIC (Enterococcus 12201) | MIC [1] | MIC [2] | MIC (S. aureus UBMS 88-4) | MIC (S. aureus NEMC 8769) | MIC (S. aureus ATCC 29213) | MIC (E. coli UBMS 90-5; [15]) | MIC (E. coli UBMS 88-1 Tet B) | MIC [9] | MIC (E. coli UBMS 89-1 Tet M) | MIC (E. coli ATCC 25922)
very good in vivo activity: in vivo activity (in words) [6]
4 µg/mL: MIC [5] | MIC [11] | MIC (S. aureus IVES 1983)
0.25 µg/mL: MIC (E. faecalis ATCC 29212) | MIC (E. coli UBMS 90-4 Tet M) | MIC [7] | MIC (E. coli BAJ9003 IMP MUT) | MIC (E. coli J3272 Tet D)
2 µg/mL: MIC (E. coli PRP1 Tet A; [12])

CN(C)[C@@H]1C(O)=C(C(N)=O)C(=O)[C@@]2(O)C(O)=C3C(=O)c4c(ccc(NC(=O)CNCc5ccccn5)c4O)CC3CC12 (stereo partly drawn) [N, [4S-(4alpha,12aalpha)]-4-(Dimethylamino)-1,4,4a,5,5a,6,11,12a-octahydro-3,10,12,12a-tetrahydroxy-1,11-dioxo-9-[[[(2-pyridinylmethyl]amino]acetyl]amino]-2-naphthacenecarboxamide dihydrochloride]
4 µg/mL: MIC (S. aureus UBMS 90-3; S. aureus UBMS 90-3, read-out: MIC) | MIC (S. aureus SMITH (MP); S. aureus SMITH (MP), read-out: MIC) | MIC (E. faecalis ATCC 29212; [13])
8 µg/mL: MIC (Enterococcus 12201) | MIC [1] | MIC [2] | MIC (S. aureus UBMS 88-4) | MIC (S. aureus NEMC 8769) | MIC (S. aureus ATCC 29213) | MIC [7] | MIC [9]
> 32 µg/mL: MIC (E. coli J3272 Tet C; [14]) | MIC (S. aureus IVES 2943) | MIC (S. marcescens FPOR 8733) | MIC [4, 16] | MIC [5] | MIC (S. aureus ROSE (MP)) | MIC (E. coli UBMS 88-1 Tet B) | MIC (E. coli J2175) | MIC [10] | MIC [11] | MIC (S. aureus IVES 1983)
32 µg/mL: MIC (E. coli PRP1 Tet A; [12]) | MIC [3] | MIC (E. coli UBMS 90-5; [15]) | MIC [8] | MIC (E. coli #311 (MP); Escherichia coli, 18 h) | MIC (E. coli ATCC 25922) | MIC (E. coli J3272 Tet D)
2 µg/mL: MIC (E. coli BAJ9003 IMP MUT)
16 µg/mL: MIC (E. coli UBMS 90-4 Tet M) | MIC (E. coli UBMS 89-1 Tet M)
